pIC50: −log10 of the molar value.
Legend:
VEGF protein = experiment: ELISA of cellular and secreted VEGF proteins in T47D cells; format: cell-based, human; settings: normalized to cellular proteins
From the text: (§1) Around 100 genes have been identified as HIF-1 target genes that encode proteins involved in various aspects of cellular physiology. While most of these genes are regulated in a cell type-specific manner, some are induced upon HIF-1 activation in most cell types. Based on availability and potency, compound 4 (a stereoisomer of 2) was selected for follow-up studies. The effects of 4 on the expression of HIF-1 target genes cyclin dependent kinase inhibitor 1A (CDKN1A) and vascular endothelial growth factor A (VEGFA) were examined by quantitative real time RT-PCR (Figure 2). The HIF-1 activator 1,10-phen (10 μM) and the pan-HDAC inhibitor TSA (0.1 and 1 μM, respectively) were included as positive controls. In T47D cells, 4 and TSA each increased the levels of CDKN1A mRNA in a concentration-dependent manner (2.9-fold for 4 at 10 μM and 7.2-fold for TSA at 1 μM, Figure 2A). In contrast, neither 4 nor TSA exerted greater than 20% effect on the levels of VEGF mRNA (Figure 2B). The gene VEGF encodes vascular endothelial growth factor A (a potent angiogenic factor) and agents that inhibit VEGF are in clinical use for cancer. The expression of cellular and secreted VEGF proteins was examined in T47D cells by ELISA assay.
Figure 2 Effects of 4 and trichostatin A (TSA) on HIF-1 target gene expression. T47D cells were exposed to 4 and TSA at the specified concentrations for 16 h. The compound 1,10-phen (10 µM) was included as a positive control. The levels of cyclin dependent kinase inhibitor 1A (CDKN1A) (A) and vascular endothelial growth factor (VEGF) (B) mRNA following treatments were determined by quantitative real time RT-PCR. Relative levels of target gene mRNA normalized to an internal control (18S rRNA) are shown as average ± standard deviation (n = 3, one representative experiment). The levels of cellular (C) and secreted VEGF protein (D) were determined by ELISA and normalized to the amount of cellular proteins. Data shown are average + standard deviation (n = 3). An asterisk “*” indicates p < 0.05 when compared to the media control.
(§2) The effects of test samples on HIF-1 target gene expression were assessed in T47D cells. To determine the levels of CDKN1A and VEGF mRNA, quantitative real-time RT-PCR was performed as described. To determine the levels of cellular and secreted VEGF proteins, T47D cells were exposed to compounds as described, the levels of VEGF proteins in the conditioned medium and cell lysate samples determined by ELISA [21], the amount of proteins in the cell lysate samples quantified using a micro BCA assay kit (Thermo Fisher Scientific, Rockford, IL, USA), and the level of VEGF proteins normalized to that of cellular proteins.

VEGF mRNA = experiment: Quantitative real time RT-PCR of VEGF mRNA in T47D cells; format: cell-based, human; settings: 10 μM, 16 h
From the text: as §1, with “The gene VEGF encodes vascular endothelial growth factor A (a potent angiogenic factor) and agents that inhibit VEGF are in clinical use for cancer. The expression of cellular and secreted VEGF proteins was examined in T47D cells by ELISA assay.” left out
Figure 2 Effects of 4 and trichostatin A (TSA) on HIF-1 target gene expression. […] The levels of cyclin dependent kinase inhibitor 1A (CDKN1A) (A) and vascular endothelial growth factor (VEGF) (B) mRNA following treatments were determined by quantitative real time RT-PCR. […] The levels of cellular (C) and secreted VEGF protein (D) were determined by ELISA and normalized to the amount of cellular proteins. […]
as §2

BoM spheroids = experiment: Cultrex 3D spheroid cell invasion assay; format: cell-based, human; settings: 96 h, in comparison to the HDAC inhibitors
Procedure: In order to form metastatic lesions, metastasis-initiating tumor cells must invade and intravasate into the lymphatic vasculature and/or blood vessels. Psammaplins were evaluated in a Cultrex® 3-D cell invasion assay that monitors the invasion and migration of tumor cells grown as spheroids, which closely model in vivo pathophysiological conditions.
Figure 5 Inhibition of bone metastatic BoM cell invasion. Tumor cell spheroids formed in a special spheroid formation extracellular matrix (ECM) were embedded in an invasion matrix containing 10% fetal bovine serum (FBS) in the presence and absence of compounds at the specified concentrations. Four days later (T96), cell invasion was recorded microscopically (the bar at the bottom right represents 100 µm).
The 3D spheroid cell invasion assay was performed using a commercial kit, following the manufacturer’s instructions (Cultrex® 3D Spheroid Cell Invasion Assay, Trevigen, Gaithersburg, MD, USA). Briefly, exponentially grown MDA-MB-231, LM, BoM, and BrM cells were trypsinized, collected, and resuspended in serum-free DMEM/F12 media. For spheroid formation, 3000 cells were added in a volume of 50 µL serum-free DMEM/F12 media with 1× spheroid formation solution/well into a pre-cooled 96-well plate. The plate was centrifuged at 100× g for 5 min at 4 °C, incubated at 37 °C for 24 h, and the spheroids imaged using an Axiovert 40 CFL microscope (Zeiss, Oberkochen, Germany). The plate was placed on ice, the invasion mix added in a volume of 50 µL/well, centrifuged at 350× g for 5 min at 4 °C, and incubated at 37 °C for 1 h. Test compounds and controls were diluted to two times the final concentrations in DMEM/F12 media supplemented with FBS (10%) and antibiotics, and added in a volume of 100 µL/well. The incubation continued for another 4 days at 37 °C and the cells/spheroids imaged (T96).

HDAC = experiment: MDA-MB-435 cell-based HDAC assay (HDAC-Glo); settings: MDA-MB-435 cells, 30 min incubation, n = 6 pooled from two experiments
Procedure: Test compounds were added at specified concentrations to exponentially grown cells plated in 96-well plates. After 30 min incubation, the HDAC activity was determined using a commercial kit (HDAC-Glo™, Promega, Madison, WI, USA) and normalized to that of the dimethyl sulfoxide (DMSO) solvent control.
Exponentially grown cells were seeded at the density of 5000 cells/well into 96-well plates (Corning, Corning, NY, USA) and incubated overnight. Compounds dissolved in DMSO were added to achieve the specified final concentrations (total volume: 100 μL, DMSO: 0.5%). The incubation continued for 30 min at 37 °C and the HDAC activity determined using a commercial luminescent assay (HDAC-Glo™, Promega, Madison, WI, USA).

HIF-1 = experiment: T47D cell-based reporter assay (pHRE-luc) for HIF-1 activity; parameters: species or system human; settings: for HIF-1 activation (highest level): T47D pHRE-luc, 16 h, no stimulus, n = 3; for normalized ratio of pHRE-luc/pGL3-control: T47D
Procedure: Cellular adaptation to hypoxia (low oxygen tension) is primarily mediated via the transcription factor hypoxia-inducible factor-1 (HIF-1), that regulates oxygen homeostasis by activating the expression of genes that increase oxygen availability and those that decrease oxygen consumption. […] In a T47D cell-based reporter assay, a lipid extract sample of the sponge Dendrilla lacunosa activated HIF-1 by 3.56-fold (NIH collection No. C025691, 10 μg mL^−1). Bioassay-guided fractionation of the extract sample (2.6 g) and chemical structure elucidation afforded five known compounds psammaplin E (1), (E,Z)-psammaplin A (2), (E,E)-psammaplin K (3), (E,E)-psammaplin A (4), and bisaprasin (5). To determine the effects of 1–5 on HIF-1 activity, concentration-response studies were performed in a T47D cell-based reporter assay (Figure 1B). An iron chelator (1,10-phenanthroline, 10 μM) was included as a positive control. Compounds 1–4 activated HIF-1 in a biphasic manner. […] Hypoxia (1% O2) and chemical hypoxia (iron chelators or transition metals) represent two common stimuli that activate HIF-1 [24, 25, 26]. Further studies were performed to determine the effects of 1–5 on HIF-1 activity in the presence of other stimuli (1,10-phenanthroline, Figure 1C; hypoxia, Figure 1D). While 1–4 acted synergistically with 1,10-phenanthroline and hypoxia to activate HIF-1, a biphasic pattern of activation similar to that in the absence of stimulus […] was observed. […] Previous studies reported that psammaplins inhibit histone deacetylase (HDAC) enzymes. To determine if HDAC inhibition non-specifically activates HIF-1, concentration-response studies were conducted in T47D cells transfected with the pGL3-control plasmid. […] One possible scenario is that these compounds incur significant amount of cellular stress at higher concentrations, leading to the inhibition of gene expression in general.
Figure 1 Concentration-dependent biphasic effects of 1–4 on HIF-1 activation. (A) Structures of psammaplins isolated from Dendrilla lacunosa. (B) Concentration-response results of 1–5 in T47D cells transfected with pHRE-luc for HIF-1 activity. Test compounds were added at the increasing concentrations of 0.1, 0.3, 1, 3, 10, and 30 µM, as specified. The positive control 1,10-phenanthroline (1,10-phen) was used at 10 µM. Data shown are average ± standard deviation (n = 3). (C) Similar to described in (B) except that the pHRE-luc transfected T47D cells were exposed to test compounds in the presence of 10 µM 1,10-phen, and the data were normalized to the positive control (1,10-phen). (D) Similar to described in (C) except that hypoxic exposure (1% O2: 5% CO2: 94% N2, 16 h) was applied in place of 1,10-phen. (E) As described in (B) except that T47D cells were transfected with the pGL3-control construct. An asterisk “*” indicates p < 0.05 when compared to the controls (“Media” for B, D, and E; and “1,10-phen” for C).
To monitor HIF-1 activity, T47D cells were transfected with the pHRE3-TK-Luc construct and the cell-based luciferase reporter assay was performed as described. Cells were exposed to test compounds in the absence and presence of 1,10-phenanthroline (10 μM) or hypoxic conditions (1% O2: 5% CO2: 94% N2) for 16 h. The cells were lysed and luciferase activity determined with a commercial kit (Promega, Madison, WI, USA). For the cell-based control reporter assay, T47D cells were transfected with the pGL3-control construct (Promega, Madison, WI, USA), exposed to test compounds for 16 h, and the luciferase reporter assay performed as described.

In the case of c1cnc2c(c1)ccc1cccnc12 [1,10-phen, 1,10-phenanthroline], the “VEGF expression, cellular protein” value (VEGF protein) was “induced VEGF expression”, the “VEGF expression, secreted protein” value (VEGF protein) was “induced VEGF expression” and the “VEGF expression, mRNA” value (VEGF mRNA) was “induced VEGF expression”.

With C[C@@H]1C[C@@H]([C@H](O)CC2CC(=O)NC(=O)C2)C(=O)[C@@H](C)C1 [CHX, cycloheximide] the “size of the spheroids” value (BoM spheroids) was “more pronounced decrease in the size of the spheroids”.

In the case of NC(=O)C(=O)NCCSSCCNC(=O)/C(Cc1ccc(O)c(Br)c1)=N/O [Compound 1, psammaplin E], the pIC50 (HDAC) was 6.59, the “HIF-1 activation (highest level)” value (HIF-1; 10 μM) was 12.01 ± 1.12 fold and the “normalized ratio of pHRE-luc/pGL3-control” value (HIF-1; 10 μM) was 2.64 fold.

With O=C(NCCSSCCNC(=O)C(Cc1ccc(O)c(Br)c1)=NO)C(Cc1ccc(O)c(Br)c1)=NO [Compound 2, (E,Z)-psammaplin A] the pIC50 (HDAC) was 7.72, the “HIF-1 activation (highest level)” value (HIF-1; 3 μM) was 12.32 ± 0.70 fold and the “normalized ratio of pHRE-luc/pGL3-control” value (HIF-1; 3 μM) was 2.38 fold.

Source: publication PMC6265740, “Biochemical and Anti-Triple Negative Metastatic Breast Tumor Cell Properties of Psammaplins” (Marine Drugs, 2018)
